Values of other authors as cited in patent publication US7932258B2, “Use of a partially neutralized, anionic (meth) acrylate copolymer as a coating for the production of a medicament pharmaceutical form releasing active substance at reduced pH values” (Evonik Roehm GmbH, priority 2005, dated 2011).

Conditions: pH 4.0

**Q.** For CC(=O)Oc1ccccc1C(=O)O [Acetylsalicylic acid], which “Solubility and stability of the active substance” value is on record?
**A.** adequately soluble and stable
